{
  "source": "patent US10076511B2",
  "about": "“Bisamide derivative of dicarboxylic acid as an agent for stimulating tissue regeneration and recovery of diminished tissue function” (TREAMID GmbH, priority 2015, dated 2018)",
  "assay_type_in_all_cases": "in vivo, rat",
  "key": {"male Wistar rats": {"system": "male Wistar rats", "assay": "Sperm motility in hypogonadotropic hypogonadism simulated with Synestrol", "conditions": "Synestrol 50 U/kg/day, Treamid 0.5 mg/kg or Tribestan 70 mg/kg intraperitoneally Day 31-45", "protocol": "Hypogonadotropic hypogonadism was simulated by the administration of Synestrol. Estrogens are able to inhibit the secretion of LH (Luteinizing hormone) and FSH (follicle stimulating hormone). An increase in the concentration of estrogens in a male body is accompanied by an increase in the content of sex-steroid-binding globulins, which leads to a decrease in the concentration of free testosterone and to the appearance of asthenospermia.\nExperiments were performed on 36 male Wistar rats (3 months of age). For 30 days after the beginning of the experiment, all male rats (except for the background group) were intramuscularly injected with Synestrol at a dose of 50 U/kg/day. Further, from Day 31 to Day 45 of the experiment, the animals of the experimental group, in addition to Synestrol, were intraperitoneally administered Treamid at dose of 0.5 mg/kg or reference drug Tribestan at a dose of 70 mg/kg. The effectiveness of Treamid was estimated by the number of motile sperm forms (percentage of motile sperm forms) isolated from the epididymis. The results of the studies were compared with those for the administration of Synestrol (control) and reference drug Tribestan."}, "male rats [1]": {"system": "male rats", "conditions": "Day 45 and Day 65", "protocol": "(§1) The latter was simulated by a single injection of cytostatic drug Paclitaxel (Mitotax, Dr. Reddy's, India) to male rats (3 months of age). The choice of the drug was due to the fact that it is one of the medications that damage the precursors of spermatogenesis—stem cells.\nPaclitaxel was administered to the animals of the control and test groups once intravenously at the maximum tolerated dose of 7.6 mg/kg. Treamid was administered to the animals of the experimental groups intragastrically at a dose of 5 mg/kg in the form of a suspension in 2% starch mucus for 15 days a month after the administration of Paclitaxel. The control animals received an equivalent volume of the solvent (2% starch mucus), instead of the test compound. […]\nOn Day 1 (in 24 hours), as well as on Day 45 and Day 65 after the administration of Paclitaxel, the animals were euthanized, and the preparations of their testes were made. Further, the content of progenitor cells of spermatogenesis in the testes was determined by an in vitro cloning method. […] Then, the nonadherent fraction of cells was collected, and the number of cells (cells/ml) was counted in the Goriaev chamber. […] After the incubation, the number of colony-forming units, spermatogenic (CFU-Sp)—clusters of more than 30 cells of round shape and of various diameters—was counted. […]"}, "male rats [2]": {"system": "male rats", "conditions": "Day 65", "protocol": "as §1\nPaclitaxel was administered to the animals of the control and test groups once intravenously at the maximum tolerated dose of 7.6 mg/kg. Treamid was administered to the animals of the experimental groups intragastrically at a dose of 5 mg/kg in the form of a suspension in 2% starch mucus for 15 days a month after the administration of Paclitaxel. The control animals received an equivalent volume of the solvent (2% starch mucus), instead of the test compound.\nThe colony-stimulating activity of the cells of the microenvironment of spermatogenic tissue (production of humoral regulators of spermatogenesis by Sertoli cells) was determined as follows. The above-described procedure was used to prepare a testis homogenate from which an adherent fraction of cells was isolated. The adherent cells were cultured for 24 hours in complete culture medium at 37° C., 5% CO2 and 100% air humidity. A day later, the supernatant was collected, which was stored at a temperature of […]. The level of humoral factors of spermatogenesis in the supernatant was tested by the test system of CFU-Sp of the testes of intact rats. […]"}},
  "note": "Several values for one entry are separate records, joined by “and”; a condition that tells them apart may be missing. Equal values may be shown once.",
  "data": [
    {"molecule": "O=C(CCCC(=O)NCCc1ncc[nH]1)NCCc1ncc[nH]1", "note": "[Treamid]", "values": [
      {"measurement": "The number of motile sperm cells (%)", "setting": "male Wistar rats; group X ± m", "value": "69.06 ± 2.98#*⋄ %"},
      {"measurement": "The number of motile sperm cells (%)", "setting": "male Wistar rats; individual animals", "value": "67.04% and 56.84% and 78.65% and 59.09% and 72.63% and 66.67% and 66.99% and 85.55% and 68.08%"},
      {"measurement": "increase in the number of colony-forming cells compared with the cytostatic control", "setting": "male rats [1]", "value": "44-48%"},
      {"measurement": "increase of the secretory activity of the microenvironment cells compared to the control", "setting": "male rats [2]", "value": 80, "unit": "%"}
    ]}
  ]
}
